Read-outs that look alike come from different tables or passages of the source.
Experiments:
human mu opioid receptor [1] = molecular target: T1, human mu opioid receptor (Homo sapiens, UniProt P35372); experiment: Human mu [35S]GTPγS nucleotide exchange assay in membranes from CHO-K1 cells; type: biochemical; settings: read-out: intrinsic activity (IA), bound [35S]GTPγS relative to DAMGO (IA=100)
human mu opioid receptor [2] = molecular target: T1, human mu opioid receptor; experiment: Radioligand binding assay, [3H]-Diprenorphine displacement, human mu opioid receptor
[3] = system: loperamide-induced delayed gastric emptying; experiment: Rat gastric emptying assay, reversal of loperamide-induced delayed gastric emptying; type: in vivo; settings: administered orally, loperamide 1 mg/kg subcutaneous
[4] = expressed as a percentage of activation by DAMGO

T1 sequence (P35372 whole entry): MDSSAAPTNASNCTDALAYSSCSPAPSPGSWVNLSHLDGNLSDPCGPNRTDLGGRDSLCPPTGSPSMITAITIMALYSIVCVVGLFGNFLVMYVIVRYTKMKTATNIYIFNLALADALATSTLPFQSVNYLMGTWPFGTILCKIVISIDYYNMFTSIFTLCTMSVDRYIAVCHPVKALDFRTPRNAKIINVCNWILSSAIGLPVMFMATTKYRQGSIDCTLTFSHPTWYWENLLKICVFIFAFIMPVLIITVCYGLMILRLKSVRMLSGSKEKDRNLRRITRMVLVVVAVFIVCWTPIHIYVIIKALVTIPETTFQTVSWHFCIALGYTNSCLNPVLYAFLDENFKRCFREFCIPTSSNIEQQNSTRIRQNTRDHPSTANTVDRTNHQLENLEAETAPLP

Emax (human mu opioid receptor [1]; [4]) | Ki (human mu opioid receptor [2]; [3H]-Diprenorphine 0.5 nM, CHO-K1 membranes, read-out: pKi at the human mu opioid receptor (converted)) | Structure (SMILES) | Ki (human mu opioid receptor [2]) | ID50, dose required for 50% reversal of the effects of loperamide [3] | Emax (human mu opioid receptor [1])
19% |  | CCC1(CC)c2cc(C(N)=O)ccc2CC(OC)[C@H]1NCC[C@@H](CC1CCCCC1)C(=O)OC (mixture of isomers) [Example 6, (R)-4-((2S,3SR)-7-Carbamoyl-1,1-diethyl-3-methoxy-1,2,3,4-tetrahydro-naphthalen-2-ylamino)-2-cyclohexylmethyl-butyric acid methyl ester] |  |  | 
 |  | CCC1(CC)c2cc(C(N)=O)ccc2C[C@H](OC)[C@H]1NCC[C@@H](CC1CCCCC1)C(=O)O [Example 10-G, (R)-4-((2S,3S)-7-Carbamoyl-1,1-diethyl-3-methoxy-1,2,3,4-tetrahydro-naphthalen-2-ylamino)-2-cyclohexylmethyl-butyric acid] | 0.251 nM | 0.12 mg/kg | 7%
-2% | 0.631 nM | CCCCC[C@@H](CCN[C@@H]1[C@@H](OC)Cc2ccc(C(N)=O)cc2C1(CC)CC)C(=O)O [Example 9, (S)-2-[2-((2S,3S)-7-Carbamoyl-1,1-diethyl-3-methoxy-1,2,3,4-tetrahydro-naphthalen-2-ylamino)-ethyl]-heptanoic acid] |  | 0.10 mg/kg | 
17% |  | CCC1(CC)c2cc(C(N)=O)ccc2C[C@@H](OC)[C@@H]1NCC[C@@H](CC1CCCCC1)C(=O)OC [Example 5, (R)-4-((2R,3R)-7-Carbamoyl-1,1-diethyl-3-methoxy-1,2,3,4-tetrahydro-naphthalen-2-ylamino)-2-cyclohexylmethyl-butyric acid methyl ester] |  |  | 
 |  | CCC1(CC)c2cc(C(N)=O)ccc2C[C@H](OC)[C@H]1NCC[C@H](CC(C)C)C(=O)OC [Example 7-A, (S)-2-[2-((2S,3S)-7-Carbamoyl-1,1-diethyl-3-methoxy-1,2,3,4-tetrahydro-naphthalen-2-ylamino)-ethyl]-4-methyl-pentanoic acid methyl ester] |  |  | 8%
 |  | CCC1(CC)c2cc(C(N)=O)ccc2C[C@H](OC)[C@H]1NCC[C@H](CC1CCCCC1)C(=O)O [Example 1, (S)-4-((2S,3S)-7-Carbamoyl-1,1-diethyl-3-methoxy-1,2,3,4-tetrahydro-naphthalen-2-ylamino)-2-cyclohexylmethyl-butyric acid] |  | 0.09 mg/kg | 
 |  | CCC1(CC)c2cc(O)ccc2C[C@H](OC)[C@H]1NCC[C@H](CC1CCCCC1)C(=O)O [Example 12, (S)-2-Cyclohexylmethyl-4-((2S,3S)-1,1-diethyl-7-hydroxy-3-methoxy-1,2,3,4-tetrahydro-naphthalen-2-ylamino)-butyric acid] | 0.2 nM | 0.05 mg/kg | -5%
-5% |  | CCC1(CC)c2cc(C(N)=O)ccc2C[C@H](OC)[C@H]1NCC[C@H](CC1CCCCC1)C(=O)OC [Example 2, (S)-4-((2S,3S)-7-Carbamoyl-1,1-diethyl-3-methoxy-1,2,3,4-tetrahydro-naphthalen-2-ylamino)-2-cyclohexylmethyl-butyric acid methyl ester] |  |  | 

Source: US8703791B2, “3-carboxypropyl-aminotetralin derivatives and related compounds as mu opioid receptor antagonists” (Theravance, Inc., priority 2007, dated 2014)
